Like-named read-outs stand apart in the source and are kept apart here.
Assays:
human IR(B) = human IR(B) (Homo sapiens, UniProt P06213); assay: Insulin receptor phosphorylation assay (MSD pIR); assay type: cell-based; details: Method B: IR phosphorylation assay, 384-well with automated liquid dispense; CHO cells expressing human IR(B); IP = inflection point; read-out: IR Activation IP
Method: CHO cells stably expressing human IR(B) were in grown in F12 cell media containing 10% FBS and antibiotics (G418, Penicillin/Strepavidin) for at least 8 hr, and then serum starved by switching to F12 media containing 0.5% BSA (insulin-free) in place of FBS for overnight growth. Cells were harvested and frozen in aliquots for use in the MSD pIR assay. Briefly, the frozen cells were plated in either 96-well (40,000 cells/well, Methods A) or 384-well (10,000 cells/well, Method B) clear tissue culture plates and allowed to recover. IOC molecules at the appropriate concentrations were added and the cells incubated for 8 min at 37° C. The media was aspirated and chilled MSD cell lysis buffer was added as per MSD kit instructions. The cells were lysed on ice for 40 min and the lysate then mixed for 10 min at rt. The lysate was transferred to the MSD kit pIR detection plates. The remainder of the assay was carried out following the MSD kit recommended protocol.
The in vitro biological activities towards insulin receptor (IR) were measured by either ligand competition assays or functional phosphorylation assays, as described above, labeled as following: Method A: IR phosphorylation assay based on 96-well; Method B: IR phosphorylation assay based on 384-well with automated liquid dispense; Method C: cell-based IR binding assay; Method D: SPA IR binding assay method E; Method E: MRC1 assay was performed in a 96-well plate; Method F: MRC1 assay was performed in a 384-well plate.

[1] = target: T1, Human macrophage mannose receptor 1 (MRC1) (Homo sapiens, UniProt P22897); assay: MRC1 competition binding assay with Eu-mannosylated-BSA; details: IP = inflection point, read-out: MRC1 Binding IP
T1 sequence (P22897 19-1456): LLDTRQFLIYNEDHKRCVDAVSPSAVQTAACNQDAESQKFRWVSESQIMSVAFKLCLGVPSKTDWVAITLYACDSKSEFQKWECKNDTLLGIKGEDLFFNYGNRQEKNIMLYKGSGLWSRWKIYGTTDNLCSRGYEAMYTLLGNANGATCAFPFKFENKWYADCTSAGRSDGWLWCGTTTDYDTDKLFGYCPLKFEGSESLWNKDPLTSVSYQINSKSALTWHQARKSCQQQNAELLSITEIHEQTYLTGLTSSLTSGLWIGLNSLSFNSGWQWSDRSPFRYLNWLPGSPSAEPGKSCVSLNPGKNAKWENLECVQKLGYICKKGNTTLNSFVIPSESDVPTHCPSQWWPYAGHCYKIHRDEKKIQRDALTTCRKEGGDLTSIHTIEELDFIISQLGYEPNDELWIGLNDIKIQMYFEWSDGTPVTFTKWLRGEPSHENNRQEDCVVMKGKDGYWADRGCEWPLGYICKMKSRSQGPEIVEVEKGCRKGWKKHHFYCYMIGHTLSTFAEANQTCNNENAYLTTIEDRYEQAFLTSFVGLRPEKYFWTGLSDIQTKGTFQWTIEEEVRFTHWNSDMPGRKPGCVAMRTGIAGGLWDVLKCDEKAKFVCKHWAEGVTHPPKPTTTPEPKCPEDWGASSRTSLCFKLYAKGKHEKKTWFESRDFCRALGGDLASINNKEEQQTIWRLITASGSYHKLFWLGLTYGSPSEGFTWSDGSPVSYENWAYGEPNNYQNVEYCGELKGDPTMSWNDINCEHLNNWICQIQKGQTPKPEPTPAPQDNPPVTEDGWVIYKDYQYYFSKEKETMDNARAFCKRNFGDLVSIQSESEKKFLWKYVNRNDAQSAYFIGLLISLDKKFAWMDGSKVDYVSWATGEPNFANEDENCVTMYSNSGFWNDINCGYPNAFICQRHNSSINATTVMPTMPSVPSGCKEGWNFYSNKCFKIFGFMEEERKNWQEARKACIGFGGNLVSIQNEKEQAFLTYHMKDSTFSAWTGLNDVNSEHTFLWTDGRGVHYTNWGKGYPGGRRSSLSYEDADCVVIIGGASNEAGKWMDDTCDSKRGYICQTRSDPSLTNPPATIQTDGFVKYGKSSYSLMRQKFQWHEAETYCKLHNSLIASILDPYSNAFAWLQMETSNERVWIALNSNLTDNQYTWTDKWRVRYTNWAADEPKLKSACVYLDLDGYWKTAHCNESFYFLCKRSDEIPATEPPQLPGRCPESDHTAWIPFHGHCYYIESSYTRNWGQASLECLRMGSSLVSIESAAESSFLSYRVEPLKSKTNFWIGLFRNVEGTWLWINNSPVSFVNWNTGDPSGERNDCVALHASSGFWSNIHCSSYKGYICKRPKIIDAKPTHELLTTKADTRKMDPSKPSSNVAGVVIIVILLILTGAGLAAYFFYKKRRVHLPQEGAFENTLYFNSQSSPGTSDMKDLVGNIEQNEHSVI
Method: The competition binding assay for Human macrophage mannose receptor 1 (MRC1) utilized a ligand, mannosylated-BSA labeled with the DELFIA Eu-N1-ITC reagent, as reported in the literature. Assay was performed either in a 96-well plate with 100 μL well volume (Method E) or in a 384-well plate with 25 μL well volume (Method F). […] The antibody was incubated in the plate for 1 hr at rt with shaking. The plate was washed with wash buffer 3-5 times followed by addition of MRC1 (2 ng/μl final concentration) in PBS containing 1% stabilizer BSA. The plate was incubated at rt with gentle shaking for 1 hr. The plate was washed three times with wash buffer. The IOC molecules in 12.5 μL (or 50 μL depending on plate format) buffer at appropriate concentrations were added followed by 12.5 μL (or 50 μL) Eu-mannosylated-BSA (0.1 nm final concentration) in 50 mM Tris, pH 7.5 containing 100 mM NaCl, 5 mM CaCl2, 1 mM MgCl2 and 0.2% stabilizer BSA. The plate was incubated for 2 hrs at rt with shaking followed by washing three times with wash buffer.

[2] = target: human insulin receptor type B (IR(B)) (Homo sapiens, UniProt P06213); assay: IR binding assay, scintillation proximity assay on cell membranes (Method D); details: Method D: SPA IR binding assay; IP = inflection point
Chain of human insulin receptor type B (IR(B)) (P06213 28-758 limits assumed): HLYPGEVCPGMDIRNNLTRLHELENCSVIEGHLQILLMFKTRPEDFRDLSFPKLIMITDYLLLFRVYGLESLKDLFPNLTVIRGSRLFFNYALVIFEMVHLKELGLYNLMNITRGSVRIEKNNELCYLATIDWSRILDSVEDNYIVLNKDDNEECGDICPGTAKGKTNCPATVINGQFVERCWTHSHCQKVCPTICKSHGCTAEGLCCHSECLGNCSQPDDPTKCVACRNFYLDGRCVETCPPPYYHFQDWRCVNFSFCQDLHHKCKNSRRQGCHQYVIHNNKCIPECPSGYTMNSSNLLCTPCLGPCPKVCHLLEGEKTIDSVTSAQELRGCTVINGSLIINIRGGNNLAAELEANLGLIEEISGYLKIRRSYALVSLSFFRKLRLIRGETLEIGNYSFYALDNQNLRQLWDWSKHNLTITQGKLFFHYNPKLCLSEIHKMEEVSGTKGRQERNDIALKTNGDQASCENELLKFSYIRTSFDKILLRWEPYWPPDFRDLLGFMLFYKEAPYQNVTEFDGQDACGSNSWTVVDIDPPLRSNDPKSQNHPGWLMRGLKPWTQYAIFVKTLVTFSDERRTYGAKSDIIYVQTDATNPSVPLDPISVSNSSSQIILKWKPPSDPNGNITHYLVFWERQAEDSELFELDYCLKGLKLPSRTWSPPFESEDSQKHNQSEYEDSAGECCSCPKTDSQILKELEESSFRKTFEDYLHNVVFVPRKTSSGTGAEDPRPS
Chain of human insulin receptor type B (IR(B)) (P06213 763-1382 partner limits assumed): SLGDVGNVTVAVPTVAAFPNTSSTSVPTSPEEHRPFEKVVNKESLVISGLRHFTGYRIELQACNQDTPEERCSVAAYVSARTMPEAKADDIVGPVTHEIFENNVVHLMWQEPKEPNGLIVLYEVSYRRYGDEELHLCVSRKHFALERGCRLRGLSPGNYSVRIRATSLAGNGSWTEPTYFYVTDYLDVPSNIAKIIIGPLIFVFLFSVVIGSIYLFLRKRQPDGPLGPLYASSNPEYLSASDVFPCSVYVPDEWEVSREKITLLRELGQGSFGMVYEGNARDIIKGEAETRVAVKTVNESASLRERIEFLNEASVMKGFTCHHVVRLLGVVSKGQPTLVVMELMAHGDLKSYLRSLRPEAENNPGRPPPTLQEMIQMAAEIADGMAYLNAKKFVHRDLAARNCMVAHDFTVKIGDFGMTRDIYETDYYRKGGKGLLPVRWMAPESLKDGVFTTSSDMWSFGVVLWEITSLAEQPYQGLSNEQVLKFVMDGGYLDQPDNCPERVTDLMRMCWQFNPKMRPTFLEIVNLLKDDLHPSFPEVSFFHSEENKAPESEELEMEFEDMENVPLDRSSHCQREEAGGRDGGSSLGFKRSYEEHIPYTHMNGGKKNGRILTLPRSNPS
Method: Method D: IR binding assay was run in a scintillation proximity assay (SPA) in 384-well format using cell membranes prepared from CHO cells overexpressing human IR(B) grown in F12 media containing 10% FBS and antibiotics (G418, Penicillin/Strepavidin). Cell membranes were prepared in 50 mM Tris buffer, pH 7.8 containing 5 mM MgCl2. The assay buffer contained 50 mM Tris buffer, pH 7.5, 150 mM NaCl, 1 mM CaCl2, 5mgCl2, 0.1% BSA and protease inhibitors (Complete-Mini-Roche). Cell membranes were added to WGA PVT PEI SPA beads (5 mg/mL final concentration) followed by addition of IOC molecules at appropriate concentrations.

Chain of human IR(B) (P06213 28-758 limits assumed): as the sequence (P06213 28-758 limits assumed) above
Chain of human IR(B) (P06213 763-1382 partner limits assumed): as the sequence (P06213 763-1382 partner limits assumed) above

SMILES	EC50 (human IR(B)) [nM]	IC50 ([1]; Method E: 96-well plate) [nM]	IC50 ([1]; Method F: 384-well plate) [nM]	IC50 [2] [nM]
CC(=O)[C@H](CCCCN)NC(=O)CCCCCNC(=O)[C@H](CCCCNC(=O)CCCC(=O)N[C@@H](CCC(=O)N(CCOC1O[C@H](CO)[C@@H](O)[C@H](O)[C@@H]1O)CCOC1O[C@H](CO)[C@@H](O)[C@H](O)[C@@H]1O)C(=O)N(CCOC1O[C@H](CO)[C@@H](O)[C@H](O)[C@@H]1O)CCOC1O[C@H](CO)[C@@H](O)[C@H](O)[C@@H]1O)NC(=O)[C@H](CCCCNC(=O)CCCC(=O)N[C@@H](CCC(=O)N(CCOC1O[C@H](CO)[C@@H](O)[C@H](O)[C@@H]1O)CCOC1O[C@H](CO)[C@@H](O)[C@H](O)[C@@H]1O)C(=O)N(CCOC1O[C@H](CO)[C@@H](O)[C@H](O)[C@@H]1O)CCOC1O[C@H](CO)[C@@H](O)[C@H](O)[C@@H]1O)NC(=O)CCCC(=O)N[C@@H](CCC(=O)N(CCOC1O[C@H](CO)[C@@H](O)[C@H](O)[C@@H]1O)CCOC1O[C@H](CO)[C@@H](O)[C@H](O)[C@@H]1O)C(=O)N(CCOC1O[C@H](CO)[C@@H](O)[C@H](O)[C@@H]1O)CCOC1O[C@H](CO)[C@@H](O)[C@H](O)[C@@H]1O (stereo partly shown) [IOC-62]	2.11	11.5	–	–
CC(=O)[C@H](CCCCN)NC(=O)CCCCCNC(=O)[C@H](CCCCNC(=O)CCCCCNC(=O)CN(CC(=O)NCCO[C@H]1O[C@H](CO[C@H]2O[C@H](CO)[C@@H](O)[C@H](O)[C@@H]2O)[C@@H](O)[C@H](O[C@H]2O[C@H](CO)[C@@H](O)[C@H](O)[C@@H]2O)[C@@H]1O)CC(=O)NCCO[C@H]1O[C@H](CO[C@H]2O[C@H](CO)[C@@H](O)[C@H](O)[C@@H]2O)[C@@H](O)[C@H](O[C@H]2O[C@H](CO)[C@@H](O)[C@H](O)[C@@H]2O)[C@@H]1O)NC(=O)[C@H](CCCCNC(=O)CCCCCNC(=O)CN(CC(=O)NCCO[C@H]1O[C@H](CO[C@H]2O[C@H](CO)[C@@H](O)[C@H](O)[C@@H]2O)[C@@H](O)[C@H](O[C@H]2O[C@H](CO)[C@@H](O)[C@H](O)[C@@H]2O)[C@@H]1O)CC(=O)NCCO[C@H]1O[C@H](CO[C@H]2O[C@H](CO)[C@@H](O)[C@H](O)[C@@H]2O)[C@@H](O)[C@H](O[C@H]2O[C@H](CO)[C@@H](O)[C@H](O)[C@@H]2O)[C@@H]1O)NC(=O)CCCCCNC(=O)CN(CC(=O)NCCO[C@H]1O[C@H](CO[C@H]2O[C@H](CO)[C@@H](O)[C@H](O)[C@@H]2O)[C@@H](O)[C@H](O[C@H]2O[C@H](CO)[C@@H](O)[C@H](O)[C@@H]2O)[C@@H]1O)CC(=O)NCCO[C@H]1O[C@H](CO[C@H]2O[C@H](CO)[C@@H](O)[C@H](O)[C@@H]2O)[C@@H](O)[C@H](O[C@H]2O[C@H](CO)[C@@H](O)[C@H](O)[C@@H]2O)[C@@H]1O [IOC-42]	1.72	–	1.99	1.95
CC(=O)[C@H](CCCCN)NC(=O)CCCCCNC(=O)[C@H](CCCCNC(=O)CCCCCNC(=O)CN(CC(=O)NCCO[C@@H]1O[C@@H](C)[C@@H](O)[C@@H](O)[C@@H]1O)CC(=O)N(CCOC1C[C@H](CO)[C@@H](O)[C@H](O)[C@@H]1O)CCOC1O[C@H](CO)[C@@H](O)[C@H](O)[C@@H]1O)NC(=O)[C@H](CCCCNC(=O)CCCCCNC(=O)CN(CC(=O)NCCO[C@@H]1O[C@@H](C)[C@@H](O)[C@@H](O)[C@@H]1O)CC(=O)N(CCOC1C[C@H](CO)[C@@H](O)[C@H](O)[C@@H]1O)CCOC1O[C@H](CO)[C@@H](O)[C@H](O)[C@@H]1O)NC(=O)CCCCCNC(=O)CN(CC(=O)NCCO[C@@H]1O[C@@H](C)[C@@H](O)[C@@H](O)[C@@H]1O)CC(=O)N(CCOC1O[C@H](CO)[C@@H](O)[C@H](O)[C@@H]1O)CCOC1O[C@H](CO)[C@@H](O)[C@H](O)[C@@H]1O (stereo partly shown) [IOC-59]	1.98	–	2.58	–

The next compounds have a lower EC50 (human IR(B)) than those just listed; values first:

EC50 (human IR(B)) [nM]	IC50 ([1]; Method E: 96-well plate) [nM]	IC50 ([1]; Method F: 384-well plate) [nM]	IC50 [2] [nM]	SMILES
0.84	–	13.1	–	CC(=O)[C@H](CCCCN)NC(=O)CCCCC(=O)NCC(=O)N[C@@H](CCC(=O)N[C@@H](CCC(=O)NCCCCCC(=O)N(CC(=O)NCCO[C@H]1O[C@H](CO)[C@@H](O)[C@H](O)[C@@H]1O)CC(=O)NCCO[C@@H]1O[C@@H](C)[C@@H](O)[C@@H](O)[C@@H]1O)C(=O)NCCCCCC(=O)N(CC(=O)NCCO[C@H]1O[C@H](CO)[C@@H](O)[C@H](O)[C@@H]1O)CC(=O)NCCO[C@@H]1O[C@@H](C)[C@@H](O)[C@@H](O)[C@@H]1O)C(=O)NCCCCCC(=O)N(CC(=O)NCCO[C@H]1O[C@H](CO)[C@@H](O)[C@H](O)[C@@H]1O)CC(=O)NCCO[C@@H]1O[C@@H](C)[C@@H](O)[C@@H](O)[C@@H]1O [IOC-50]
1.12	1.89	–	–	CC(=O)[C@H](CCCCN)NC(=O)CCCCCNC(=O)[C@H](CCCCNC(=O)CCCCCNC(=O)CN(CC(=O)N(CCOC1O[C@H](CO)[C@@H](O)[C@H](O)[C@@H]1O)CCOC1O[C@H](CO)[C@@H](O)[C@H](O)[C@@H]1O)CC(=O)N(CCOC1O[C@H](CO)[C@@H](O)[C@H](O)[C@@H]1O)CCOC1O[C@H](CO)[C@@H](O)[C@H](O)[C@@H]1O)NC(=O)[C@H](CCCCNC(=O)CCCCCNC(=O)CN(CC(=O)N(CCOC1O[C@H](CO)[C@@H](O)[C@H](O)[C@@H]1O)CCOC1O[C@H](CO)[C@@H](O)[C@H](O)[C@@H]1O)CC(=O)N(CCOC1O[C@H](CO)[C@@H](O)[C@H](O)[C@@H]1O)CCOC1O[C@H](CO)[C@@H](O)[C@H](O)[C@@H]1O)NC(=O)CCCCCNC(=O)CN(CC(=O)N(CCOC1O[C@H](CO)[C@@H](O)[C@H](O)[C@@H]1O)CCOC1O[C@H](CO)[C@@H](O)[C@H](O)[C@@H]1O)CC(=O)N(CCOC1O[C@H](CO)[C@@H](O)[C@H](O)[C@@H]1O)CCOC1O[C@H](CO)[C@@H](O)[C@H](O)[C@@H]1O (stereo partly shown) [IOC-61]
1.17	–	0.87	–	CC(=O)[C@H](CCCCN)NC(=O)CCCCCNC(=O)[C@H](CCCCNC(=O)CCCCC(=O)NCCCC[C@@H](C(=O)NCCO[C@@H]1O[C@@H](C)[C@@H](O)[C@@H](O)[C@@H]1O)N(CC(=O)NCCO[C@@H]1O[C@@H](C)[C@@H](O)[C@@H](O)[C@@H]1O)CC(=O)NCCO[C@@H]1O[C@@H](C)[C@@H](O)[C@@H](O)[C@@H]1O)NC(=O)[C@H](CCCCNC(=O)CCCCC(=O)NCCCC[C@@H](C(=O)NCCO[C@@H]1O[C@@H](C)[C@@H](O)[C@@H](O)[C@@H]1O)N(CC(=O)NCCO[C@@H]1O[C@@H](C)[C@@H](O)[C@@H](O)[C@@H]1O)CC(=O)NCCO[C@@H]1O[C@@H](C)[C@@H](O)[C@@H](O)[C@@H]1O)NC(=O)CCCCC(=O)NCCCC[C@@H](C(=O)NCCO[C@@H]1O[C@@H](C)[C@@H](O)[C@@H](O)[C@@H]1O)N(CC(=O)NCCO[C@@H]1O[C@@H](C)[C@@H](O)[C@@H](O)[C@@H]1O)CC(=O)NCCO[C@@H]1O[C@@H](C)[C@@H](O)[C@@H](O)[C@@H]1O [IOC-58]
